Measured values: patent US20220079953A1, “METHODS FOR MANAGEMENT OF WEIGHT” (The University of Sydney, priority 2018, published 2022)

Legend:
[1] = Reinstatement of sucrose-seeking; format: in vivo, Sprague Dawley rats; details: for reinstatement of sucrose seeking: 15 min before session, p<0.001 vs 0 mg/kg reinstatement
Text: Sugar is a highly palatable food component. This contributes greatly to the maintenance of the high sugar diets that can lead to obesity. Once a healthier diet has been established, including cessation of consumption of high sugar foods, it can be difficult for individuals to maintain that healthier diet. Specifically, after a period of not consuming the high sugar foods individuals can again start seeking out and consuming those foods. Here we model this resumption of high-sugar diet consumption using a rat model of reinstatement of sucrose self-administration to assess whether SOC-1 might reduce motivation to resume consumption of high-sugar foods.
Male Sprague Dawley rats were water deprived for 19.5 hours before the start of sucrose self-administration. Water deprivation continued for the first five days of self-administration. Rats were allowed to acquire self-administration of sucrose (10%) during 30-minute FR-1 scheduled sessions for 20 days. Following this, rats were exposed to daily 30-minute extinction sessions. Rats met the extinction criteria (minimum of 10 days and less than 15 active lever presses per session for 2 consecutive days) after 10 sessions. Once the extinction criteria were met, rats underwent reinstatement testing. Each reinstatement test session was separated by two extinction days. Prior to each reinstatement session, rats received an injection of vehicle or SOC-1. Fifteen minutes later, they were placed in the testing chamber, where they had access to 0.3 ml sucrose, which they could lever press for. Rats received SOC-1 in an ascending dose sequence (0, 5, 10 mg/kg, ip). On the reinstatement session subsequent to SOC-1 dose testing, an additional vehicle session was conducted to ensure that rats continued to reinstate to sucrose-seeking behaviour when no treatment was given.

[2] = Sucrose self-administration under FR5 schedule; format: in vivo, Sprague Dawley rats; details: 10% sucrose; for active lever presses / number of sucrose rewards received: 15 min before session, p<0.001
Text: This model induces high levels of sucrose consumption and sucrose seeking in rats, akin to the unhealthy high sugar diets that are a major determinant of obesity. Excessive consumption of sugar-sweetened beverages are especially associated with increased risk of obesity and type 2 diabetes. Thus, the model chosen here is particularly well suited as it involves escalating voluntary consumption of high-sucrose solution by rats, providing both face and construct validity.
Male Sprague Dawley rats were water deprived for 19.5 hours before the start of sucrose self-administration. Water deprivation continued for the first five days of self-administration. Initially, rats were trained during daily 30 minute FR-1 scheduled sessions to lever press for sucrose (10%). Stable responding under the FR-1 schedule was achieved within 10 days. Rats were then transferred to an FR2 and FR3 schedule for a minimum of three days, and then an FR5 schedule until lever pressing stabilised. Subsequently SOC-1 testing began. Each test day was separated by 2-3 FR-5 scheduled sessions. Rats received SOC-1 in an ascending dose sequence (0, 5, and 10 mg/kg, ip), which was administered 15 minutes prior to the test session. On the final test session, rats received a vehicle injection to ensure rats continued to self-administer sucrose at high levels when not receiving treatment with SOC-1.

[3] = Progressive ratio consumption of a high-sugar high-fat food (M&Ms) by non-human primates; format: in vivo, rhesus monkeys; details: for trend of breakpoint with increasing doses: 0, 1, 2, 3 mg/kg IM
Text: Individuals who are overweight or obese frequently report intense cravings for, and motivation to, consume food. Here we model the motivational aspects that can drive excessive food-seeking and consumption, which can lead to overweight and obesity by studying rhesus monkeys who must respond under a progressive ratio to receive M&Ms (which are high in both fat and sugar). A progressive ratio requires subjects to work increasingly harder to obtain reinforcement, modelling the intense motivation and craving characteristic of excessive food-seeking and consumption in individuals who are obese, overweight or at risk of being overweight.
Five female rhesus monkeys were trained to press a lever to self-administer M&Ms. Under a progressive ratio, subjects responded for a reinforcer of either 1 or 5 M&Ms. The ratio began at either 25 (two subjects) or 50 (three subjects) responses per reinforcement and increased by 40% after each reinforcer delivery. SOC-1 was administered IM using a within-subjects design whereby all monkeys received doses of 0, 1, 2 and 3 mg/kg SOC-1. One dose per subject was administered prior to each progressive ratio test session. Breakpoint refers to the number of times the monkeys would press the lever to receive a single reinforcer before giving up.

[4] = Inhibition of weight gain in rats; format: in vivo, Sprague Dawley rats; details: 30 mg/kg oral gavage once daily for 10 days; ad libitum standard chow
Procedure: 20 adult male Sprague Dawley rats were given ad libitum access to standard rat chow in their home cage over the course of the experiment. Rats were divided into four equally sized groups and were treated once daily with either 0, 5, 10 or 30 mg/kg SOC-1 via oral gavage for 10 days. Body weights were recorded daily.

[5] = Extinction of food reward-associated lever pressing in food restricted rats; format: in vivo, Long-Evans rats; details: all doses tested (5, 10, 20 mg/kg p.o.), 30 min before session
Procedure: Adult male Long-Evans rats were allowed to feed freely until they reached a target weight of 320-340 g. Rats were then maintained at this weight by restricting feeding. Once target weight had been reached, each rat was placed in an operant test chamber and was trained to press the right lever to receive a 45 mg food pellet under an FR1 schedule of reinforcement during daily 15 min sessions.
Once stable responding (right-side lever pressing+/−10% of the mean of the previous three sessions) had been established, drug testing commenced. Rats were pre-treated with SOC-1 (0, 5, 10, 20 mg/kg) administered by oral gavage (p.o.) 30 min prior to the start of the session.

For `Cn1ncc2c1Nc1ccccc1NC2` [SOC-1], the “reinstatement of sucrose seeking” value ([1]; 5 mg/kg ip) was “completely prevented reinstatement”, the “reinstatement of sucrose seeking” value ([1]; 10 mg/kg ip) was “completely prevented reinstatement” and the inactive lever presses ([1]; reinstatement sessions, any dose (5, 10 mg/kg ip)) was “no significant effect”. For the same molecule, the active lever presses ([2]; 5 mg/kg ip) was “significantly decreased”, the “number of sucrose rewards received” value ([2]; 5 mg/kg ip) was “significantly decreased” and the active lever presses ([2]; 10 mg/kg ip) was “significantly decreased”. For the same molecule, the “number of sucrose rewards received” value ([2]; 10 mg/kg ip) was “significantly decreased”, the inactive lever presses ([2]; 5 and 10 mg/kg ip) was “no significant effect” and the “trend of breakpoint with increasing doses” value ([3]; reinforcement 1 M&M, trend analysis p=0.012) was “significant linear decrease in breakpoint”. The “breakpoint (lever presses for a single reinforcer before giving up)” value ([3]; reinforcement 1 M&M, 2 mg/kg IM, p=0.015 vs 0 mg/kg) was “significantly reduced the breakpoint”, the “breakpoint (lever presses for a single reinforcer before giving up)” value ([3]; reinforcement 1 M&M, 3 mg/kg IM, p=0.014 vs 0 mg/kg) was “significantly reduced the breakpoint” and the “trend of breakpoint with increasing doses” value ([3]; reinforcement 5 M&Ms, trend analysis p=0.025) was “significant linear decrease in breakpoint”. The “breakpoint (lever presses for a single reinforcer before giving up)” value ([3]; reinforcement 5 M&Ms, 3 mg/kg IM, p=0.021 vs 0 mg/kg) was “significantly reduced the breakpoint”, the “weight gain over the 10 treatment days” value [4] was “significantly inhibited weight gain” and the “non-reinforced responding for a food pellet” value [5] was “significantly reduced”.
